In data set [1] the test system is intrinsic coagulation system. In words: APTT (activated partial thromboplastin time) test. Format: biochemical. To be noted: relative to heparin. The protocol: (§1) For this, the anticoagulant activity of the laminarin sulphate PS3 obtained in Example 1 was determined as a function of its concentration in comparison with that of heparin in the conventional coagulation, APTT or “activated partial thromboplastin time” tests, the prothombin time test, the so-called “HEPTEST” test and the thrombin time test. The APTT reflects an interaction with the intrinsic coagulation system, while the prothrombin time reflects an interaction with the extrinsic coagulation; the so-called “HEPTEST” test is the conventional test for measurement of the inhibitory activity of heparin with respect to factor Xa, and the thrombin time corresponds to the last stage of coagulation, that is to say the formation of fibrins induced by thrombin.

For data set [2], the system named is white rabbits of the New Zealand breed. As to the kind of experiment: Ocular irritation test. It is filed as in vivo. As for the experimental part:
(§2) This study was carried out on white rabbits of the New Zealand breed and on rats of the Sprague Dawley breed.
(§3) The white rabbits were subjected on the one hand to the ocular irritation test and on the other hand to the primary skin irritation test.
(§4) observing the OECD Guidelines no. 404 and 405 of 24 Feb. 1987 to the extent that they are studies carried out on white rabbits, and OECD Guidelines no. 401 and 402 (1987) as well as EEC Directive B-I 92/69 (1992) to the extent that they are studies carried out on Sprague Dawley rats.

The test system is the same in data set [3]. In words: Primary skin irritation test. It is filed as in vivo. As for the experimental part: as §2, §3, §4
Data set [4] deals with HSV-1, HSV-1R, HSV-2 and HSV-2R. As to the kind of experiment: Action on the viral infection: vero cells pretreated before infection. It is filed as cell-based, herpes simplex virus. As for the experimental part:
The abovementioned viral suspensions of HSV-1, HSV-1R, HSV-2 and HSV-2R, defined by an MOI of 0.01 ID50/cell for a cell concentration of 350,000 cells/ml, were tested.
Acyclovir and dextran sulphate used at concentrations comprised between 0.05 and 5 μg/ml were used as reference products in this series of experiments. PS3 concentrations of 0.125 to 1,250 μg/ml were used, and the experiments were carried out in 96-well microtitre plates.
To verify whether PS3 protects a cell culture when it is used before its infection by the abovementioned viral strains, the procedure was as follows.
Vero cells were seeded at a cell density of […] in 100 μl of MEM medium containing 8% FCS.
A solution of 50 μl of PS3 or the comparison product, that is to say acyclovir having a given concentration, was then added to each well filled with 50 μl of MEM medium with 8% FCS.
The microtitre plate containing the cells treated with PS3 or the reference product was than placed in an oven at 37° C. for 6, 12 or 24 hours. The cells were then washed with 100 μl of MEM medium in order to remove the PS3 or the reference product.
A volume of 50 μl of a viral suspension was then added to each well, as well as 50 μl of MEM medium with 8% FCS; and the plates were kept at 4° C. for 1 hour.
The infected cells were then placed in an oven at 37° C. for 48 or 72 hours.

Data set [5] relates to factor Xa. As to the kind of experiment: Specific anti-factor Xa test using chromogenic substrates. It is filed as biochemical. From the text: (§5) The effect in the case of the thrombin time can be considered as being due to an inhibition of thrombin dependent on heparin cofactor II. On the basis of on the one hand the lower specific activity and on the other hand the profile dependent on the concentration and also on the other hand other investigations relating to the action mechanism, it is possible to consider that in the case of the laminarin sulphate PS3, the risk of bleeding is considerably lower than in the case of heparin.

Data set [6] has as its system HSV-1R. In words: Action on the viral adsorption (treatments A, B, C). Format: cell-based, herpes simplex virus 1. To be noted: treatment C (present during and after infection), 72 hours. As for the experimental part: (§6) To determine whether PS3 has an effect on the viral adsorption, the procedure was as follows.
(§7) Vero cells were seeded at a cell density of 3.5·10^4 cells/well of a 96-well microtitre plate in 100 μl of MEM medium containing 8% FCS 24 hours before the test. The viral suspensions of HSV-1, HSV-1R, HSV-2 and HSV-2R, defined by an MOI of 0.01 ID50/cell for a cell concentration of 350,000 cells/ml, were tested.
(§8) On the day of the test, the cells were subjected to three different treatments designated A, B and C.
(§9) According to treatment A, cells treated with 50 μl of PS3 or comparison product (acyclovir) of a given concentration were infected with 50 μl of one of the viral suspensions identified above for one hour at 4° C.
(§10) The infected cells were then washed with 100 μl of saline buffer in order to remove the PS3 or the reference product as well as the viral particles which had not been adsorbed by the cells.
(§11) After having filled each well with sufficient MEM medium containing 8% FCS to arrive at a volume of 200 μl, the cells were then placed in an oven at 37° C. for 72 hours. […]
(§12) For these 3 treatments, the inhibitory effect of PS3 and of the reference product (expressed in EC50) on the adsorption of the four abovementioned viral strains after 72 hours was evaluated by measurement of the EC50 values in accordance with the method described in Example 3.

In data set [7] the test system is HSV-1. The data set is described as above. The note with it: treatment C (present during and after infection), 72 hours. It is filed as cell-based, herpes simplex virus 1. The protocol: as §6, §7, §8, §9, §10, §11, §12
In data set [8] the test system is formation of fibrins induced by thrombin. As to the kind of experiment: Thrombin time test. It is filed as biochemical. To be noted: relative to heparin. The protocol:
as §1

Data set [9] concerns thrombin. In words: Specific antithrombin test using chromogenic substrates. It is filed as biochemical.
From the text: as §5

Data set [10] deals with rats of the Sprague Dawley breed. In words: Acute oral toxicity. Format: in vivo. As for the experimental part: as §2
(§13) The rats were subjected on the one hand to a study for determination of the acute dermal toxicity and on the other hand to a study for determination of the acute oral toxicity.
as §4

For data set [11], the system named is extrinsic coagulation. As to the kind of experiment: Prothrombin time test. It is filed as biochemical. As for the experimental part: as §1
Data set [12] deals with rats of the Sprague Dawley breed. As to the kind of experiment: Acute dermal toxicity. Format: in vivo. The protocol: as §2, §13, §4
Setting [13] is: strains HSV-1, HSV-2, HSV-1R, HSV-2R, cells pretreated 6, 12 or 24 hours, washed, then infected.

What is called EC50 is the concentration giving half of the maximal effect. Low values mean greater potency, high ones weaker potency.

In the case of sulphated laminarin [PS3], in data set [1], the “Concentration needed to prevent coagulation totally, APTT” value was 4 times higher and the “Specific activity (IU/mg) in the APTT as share of the heparin activity” value is given as 30%. The Ocular irritation entry in data set [2] was “slightly irritating action”. Besides, the Primary skin irritation result in data set [3] is “non-irritating action”. In addition, the Effect before infection entry in [4] (setting [13]) was “not protected and no”. The “anti-factor Xa activity dependent on the antithrombin” value in data set [5] is listed as “neither a significant anti-factor Xa activity dependent on the antithrombin”. In [6], this compound had an EC50 of 5.54 µg/mL. In [7], the EC50 turned out to be 3.84 µg/mL. Moreover, in data set [8], the “Concentration needed to prevent coagulation totally, thrombin time” value is given as 20 times higher and the “Specific activity (IU/mg) in the thrombin time as share of the heparin activity” value was 60%. Moreover, in [9], the antithrombin activity entry was “nor an antithrombin activity”. Also, the “acute toxicity by the oral route” value in [10] is recorded as “greater than 2 g/kg of body weight”. Also, in data set [11], the “Anticoagulant effect on the prothrombin time” value is “no pronounced anticoagulant effect”. For the same compound, the “dermal 50% lethal dose” value in [12] is reported as “greater than 2 g/kg of body weight”.

`Nc1nc2c(ncn2COCCO)c(=O)[nH]1` [Acyclovir, acyclovir, reference compound]: the Effect before infection result is recorded as “no” in data set [4] (non-resistant strains HSV-1 and HSV-2); “not protected” in data set [4] (setting [13]).

For the origin of these results see patent publication US8288363B2, “Medicaments for anti-herpes virus treatments” (ASE & BIO, priority 2006, dated 2012).
